The assay relates to cervical carcinoma cells (HeLa). The assay is described as follows: Cell deformability measurement of drug-treated HeLa cells in microfluidic extensional flow (cytoskeletal disruption). In kind it is cell-based. On the procedure: Still referring to FIG. 4, post-processing (operation 450) is conducted on the data 80 to determine cell size, cell deformation, and cell circularity. The cells 50 passing through the system 10 may either be of a known phenotype or an unknown phenotype as illustrated by operation 400. As part of the post processing operation 450, the size of the cell 50 prior to entering the extensional region 40 is determined. The cell diameter (d) is determined as the average of the minimum cell diameters at […] to horizontal prior to entering the extensional region 40 (approximately four (4) frames prior to entering extension region 40). By taking the size measurements from the vertical axis, noise due to blur attributed to high velocities in the horizontal direction is reduced. As the cell 50 enters the extension region 40 and changes trajectory the deformability and circularity parameters are measured. In the frame where the largest deformation is calculated, the corresponding circularity is recorded as well. The deformability parameter is determined by the ratio a/b of the maximum diameter (a) in the vertical direction at 90°±30° to the minimum diameter (b) in the horizontal direction at 0°±30°. The circularity parameter is calculated by (4πA/L^2) wherein A is the area of the observed cell and L is the perimeter of the cell. […]

Consider `COC(=O)Nc1nc2ccc(C(=O)c3cccs3)cc2[nH]1` [Nocodazole], for which the “cell deformability (a/b) versus untreated HeLa control” value (HeLa cells incubated in 2 μM nocodazole for 1 hour prior to deformability assay) is listed as “more rigid than untreated cells”.

As for `C/C1=C/C(=O)O[C@@H]2C[C@@H](CC[C@H](C)/C=C\C=C\CC1)O[C@@](O)([C@@H]1CSC(=O)N1)C2` [Latrunculin, Latrunculin A], under “HeLa cells incubated in 0.1 μM Latrunculin A for 4 hours prior to deformability assay”, the “cell deformability (a/b) versus untreated HeLa control” value is given as “significantly more deformable”.
